Results taken from ChEMBL document CHEMBL1152734, “Novel E. coli beta-ketoacyl-acyl carrier protein synthase III inhibitors as targeted antibiotics” (Bioorg Med Chem, 2009).
Converted amounts (≈) assume the structure as drawn. The source made the active and inactive calls. The calls are words filed in the database; no cut-off is given here.

Columns and labels:
Escherichia coli K-12 = assay: Binding affinity to Escherichia coli K12 KAS 3 expressed in Escherichia coli BL21 by STD-NMR spectroscopy
[1] = biological target: T1, Beta-ketoacyl-[acyl-carrier-protein] synthase III (Escherichia coli K-12, UniProt P0A6R0); assay: Binding affinity to Escherichia coli K12 KAS 3 expressed in Escherichia coli BL21 by fluorescence quenching analysis
T1 sequence (P0A6R0 whole entry): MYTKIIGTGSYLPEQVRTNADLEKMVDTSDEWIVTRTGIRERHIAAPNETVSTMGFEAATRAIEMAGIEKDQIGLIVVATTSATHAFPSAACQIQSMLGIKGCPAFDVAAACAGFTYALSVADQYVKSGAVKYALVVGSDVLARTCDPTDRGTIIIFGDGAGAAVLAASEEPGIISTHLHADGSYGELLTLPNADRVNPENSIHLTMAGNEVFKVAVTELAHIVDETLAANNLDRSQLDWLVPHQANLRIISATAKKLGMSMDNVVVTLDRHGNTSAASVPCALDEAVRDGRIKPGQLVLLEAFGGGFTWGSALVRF

Escherichia coli = assay: Antimicrobial activity against Escherichia coli KCTC 1682 after 20 hrs by twofold serial broth dilution method; format: functional; details: KCTC 1682, 20 h
Staphylococcus aureus [2] = assay: Antimicrobial activity against Staphylococcus aureus KCTC 1621 after 20 hrs by twofold serial broth dilution method; format: functional; details: KCTC 1621, 20 h
Staphylococcus aureus [3] = assay: Antimicrobial activity against methicillin-resistant Staphylococcus aureus CCARM 3114 after 20 hrs by twofold serial broth dilution method; format: functional; details: CCARM 3114, 20 h
Enterococcus faecalis = assay: Antimicrobial activity against Enterococcus faecalis KCTC 2011 after 20 hrs by twofold serial broth dilution method; format: functional; details: KCTC 2011, 20 h
Klebsiella pneumoniae = assay: Antimicrobial activity against Klebsiella pneumoniae KCTC 2242 after 20 hrs by twofold serial broth dilution method; format: functional; details: KCTC 2242, 20 h

Row | Activity (Escherichia coli K-12) | SMILES | Kd [1] [µM] | MIC (Escherichia coli) [mg/L] | MIC (Staphylococcus aureus [2]) [mg/L] | MIC (Staphylococcus aureus [3]) [mg/L] | MIC (Enterococcus faecalis) [mg/L] | MIC (Klebsiella pneumoniae) [mg/L]
1 | inactive | CC1(O)N(CCC(N)=O)C(=O)OC12CCCCC2 (stereo unspecified) |  |  |  |  |  | 
2 | Active | CC1CN(c2ccc(O)c(C(=O)O)c2)C(=S)NC1=O (stereo unspecified) | > 1000 |  |  |  |  | 
3 | inactive | CCCc1cc(=O)oc2cc(OC(=O)c3ccccc3Cl)ccc12 |  |  |  |  |  | 
4 | inactive | Cc1c(C(=O)O)cc(C(C)(C)C)n1CCSCc1c(F)cccc1Cl |  |  |  |  |  | 
5 | Active | C=CCSC1Nn2c(nnc(C)c2=O)S1 (stereo unspecified) | > 1000 |  |  |  |  | 
6 | Active | CC(C)(CC(=O)O)CC(=O)NCCN1CCNC1=O | > 1000 |  |  |  |  | 
7 | inactive | COc1ccc2c(c1)CCC/C2=N/Nc1nc(C(=O)NN)cs1 |  |  |  |  |  | 

More lines, now with the values behind:

Row | SMILES | Activity (Escherichia coli K-12) | Kd [1] [µM] | MIC (Escherichia coli) [mg/L] | MIC (Staphylococcus aureus [2]) [mg/L] | MIC (Staphylococcus aureus [3]) [mg/L] | MIC (Enterococcus faecalis) [mg/L] | MIC (Klebsiella pneumoniae) [mg/L]
8 | Cn1ncc2c(Nc3ccccc3)nc(NCCCO)nc21 | Active | 141 |  |  |  |  | 
9 | NS(=O)(=O)c1cccc(NC(=O)Nc2cccc(S(N)(=O)=O)c2)c1 | inactive |  |  |  |  |  | 
10 | COc1ccc2c(c1OC)C(=O)OC2C(C)C(=O)c1ccc(O)c(O)c1 (stereo unspecified) | Active | 1.22 | > 1020 | > 1020 | > 1020 | > 1020 | > 1020
11 | C=CCn1c(SCC(=O)Nc2ccc(S(N)(=O)=O)cc2)nnc1-c1ccc(Cl)cc1 | inactive |  |  |  |  |  | 
12 | COc1ccc(NC(=O)CC(CC(=O)O)c2ccccc2)cc1 (stereo unspecified) | inactive |  |  |  |  |  | 
13 | Cc1cc(C)nc(NS(=O)(=O)c2ccc(NC(=O)c3sc4ccccc4c3Cl)cc2)n1 | inactive |  |  |  |  |  | 
14 | Oc1ccc(/C=N/C2CCCCC2)c(O)c1 | Active | 0.02 | 128 (≈ 584 µM) | 256 (≈ 1170 µM) | 128 (≈ 584 µM) | 256 (≈ 1170 µM) | 256 (≈ 1170 µM)
15 | C=C/C(C)=C/[C@@]1(C)SC(=O)C(C)=C1O [THIOLACTOMYCIN] | Active | 121 | 128 (≈ 609 µM) | 256 (≈ 1220 µM) | 128 (≈ 609 µM) | 256 (≈ 1220 µM) | 256 (≈ 1220 µM)
16 | C/C(=N\Nc1nc(C)cs1)c1cccc(O)c1 | Active | > 1000 | > 1020 | 256 (≈ 1040 µM) | 256 (≈ 1040 µM) | 256 (≈ 1040 µM) | > 1020
17 | O=C(O)c1cc(NC(=O)c2ccccc2[N+](=O)[O-])ccc1O | Active | > 1000 |  |  |  |  | 
